Assay results from US20220242958A1, “BISPECIFIC NANOBODIES” (Ablynx N.V., priority 2013, published 2022).

What was measured:
[1] = system: X4 HIV-1 clone NL4.3 (U87 cells); experiment: HIV-1 infection assay, U87 cells + NL4.3; assay type: cell-based; conditions: Human immunodeficiency virus 1, U-87 MG; n = 3; read-out: IC50 (nM) U87 + NL 4.3 (X4)
[2] = system: X4 HIV-1 clone NL4.3 (PBMCs); experiment: microbe, parasite or virus in culture; assay type: cell-based; conditions: Human immunodeficiency virus 1, PBMC, read-out: IC50 (nM) PBMC + NL 4.3(X4)
[3] = system: HIV-1 NL4.3 AMD-3100 res. variant; assay type: cell-based; conditions: versus wild-type NL4.3
[4] = system: dual-tropic (R5/X4) HIV-1 HE strain; experiment: HIV infection assay, MT-4 cells + HIV-1 HE; assay type: cell-based; conditions: Human immunodeficiency virus 1, MT4
Description: (§1) Viral strains used were the X4 HIV-1 clone NL4.3, R5 HIV-1 strain BaL, or the R5/X4 HIV-1 HE strain. Infection was done in MT-4 cells or phytohemagglutin-stimulated PBMCs from different healthy donors. The CXCR4-using (X4) HIV-1 clone NL4.3 was obtained from the National Institutes of Health NIAID AIDS Reagent program (Bethesda, Md.), the CCR5-using (R5) HIV-1 strain BaL was obtained from the Medical Research Council AIDS reagent project (Herts, UK). The dual-tropic (R5/X4) HIV-1 HE strain was initially isolated from a patient at the University Hospital in Leuven. The MT-4 cells were seeded out in 96-well plate and the U87 cells in 24-well plates. Nanobodies were added at different concentrations together with HIV-1 and the plates were maintained at 37° C. in 10% CO2. Cytopathic effect induced by the virus was monitored by daily microscopic evaluation of the virus-infected cell cultures. […] The absorbance was measured spectrophotometrically at 490 nm with a 96-well plate reader (Molecular Devices, Sunnyvale, Calif.) and compared with four cell control replicates (cells without virus and drugs) and four virus control wells (virus-infected cells without drugs). The IC50, i.e., the drug concentration that inhibits HIV-induced cell death by 50%, was calculated for each polypeptide from the dose-response curve. […]

HIV-2 ROD = experiment: HIV infection assay, MT-4 cells + HIV-2 ROD; assay type: cell-based; conditions: Human immunodeficiency virus 2, MT4
Description: as §1

hEGFR ECD = target: T1, hEGFR ECD (Homo sapiens, UniProt P00533); experiment: SPR (Biacore T100) on hEGFR extracellular domain; assay type: binding
T1 construct: directly immobilized hEGFR extracellular domain (Sino Biological, #10001-H08H); purchased Sino Biological 10001-H08H

## c1cc(CN2CCCNCCNCCCNCC2)ccc1CN1CCCNCCNCCCNCC1 [AMD3100, reference compound]
[1]
  IC50: 10 nM
[2]
  IC50: 1.91 nM
[3]
  loss in potency towards AMD3100 resistant virus: ~100 fold
[4]
  IC50: 3.9 nM
HIV-2 ROD
  IC50: 21.1 nM

## EGFR#32: EGFR Nanobody variant 7C12(A1E, E100fS, Q108L)
hEGFR ECD
  hEGFR ECD ka: 270000 M⁻¹ s⁻¹
  hEGFR ECD kd: 0.23 s⁻¹

## EGFR#11: EGFR Nanobody variant 7C12 (A1E, Q108L)
hEGFR ECD
  hEGFR ECD ka: 220000 M⁻¹ s⁻¹
  hEGFR ECD kd: 0.037 s⁻¹
